# Data as given in patent US5498623A, “4(5) substituted imidazoles and their preparation and use” (Orion-yhtyma Oy, priority 1991, dated 1996).
# Read-outs that look alike come from different tables or passages of the source.
# Columns and labels:
# α2-adrenoceptor [1] = target: T1, α2-adrenoceptor (Mus musculus, UniProt Q01338); experiment: α2-Antagonism in vitro, isolated electrically stimulated mouse vas deferens (vs detomidine)
# T1 construct: isolated, electrically stimulated mouse vas deferens preparation; from tissue; host or cells: isolated mouse vas deferens
# T1 sequence (Q01338 1-465): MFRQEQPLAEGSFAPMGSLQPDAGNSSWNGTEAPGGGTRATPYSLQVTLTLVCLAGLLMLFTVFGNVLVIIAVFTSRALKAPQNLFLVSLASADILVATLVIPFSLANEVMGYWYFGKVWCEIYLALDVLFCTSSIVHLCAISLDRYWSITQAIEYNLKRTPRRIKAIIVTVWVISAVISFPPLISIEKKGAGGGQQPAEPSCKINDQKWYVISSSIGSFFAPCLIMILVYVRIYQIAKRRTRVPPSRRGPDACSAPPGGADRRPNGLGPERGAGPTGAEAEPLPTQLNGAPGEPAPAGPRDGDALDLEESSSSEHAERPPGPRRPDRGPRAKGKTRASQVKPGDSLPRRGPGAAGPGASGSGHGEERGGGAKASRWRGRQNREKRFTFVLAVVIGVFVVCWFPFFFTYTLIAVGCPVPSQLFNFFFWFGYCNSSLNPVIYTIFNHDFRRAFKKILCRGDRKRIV
# Protocol: 1. α2 -Antagonism in vitro
# α2 -Antagonism was determined by means of isolated, electrically stimulated mouse vas deferens preparation (Marshall et al., Br. J. Pharmac. 62, 147, 151, 1978). In this model, α2 -agonist (detomidine) blocks electrically stimulated muscular contractions and the effect of the α2 -antagonist is seen by administering it prior to the agonist and by determining its pA2 value.
# α2-adrenoceptor [2] = target: T2, α2-adrenoceptor (Rattus norvegicus, UniProt P22909); experiment: Relative peroral bioavailability (α2-blocking potency after peroral vs parenteral administration); assay type: in vivo; details: equipotent doses 0.3 to 3 mg/kg, 1 hour before anaesthesia
# T2 construct: transmitted via postsynaptic α2 -receptors in the central nervous system; from tissue; host or cells: whole anaesthetized rat (in vivo), central nervous system
# T2 sequence (P22909 1-465): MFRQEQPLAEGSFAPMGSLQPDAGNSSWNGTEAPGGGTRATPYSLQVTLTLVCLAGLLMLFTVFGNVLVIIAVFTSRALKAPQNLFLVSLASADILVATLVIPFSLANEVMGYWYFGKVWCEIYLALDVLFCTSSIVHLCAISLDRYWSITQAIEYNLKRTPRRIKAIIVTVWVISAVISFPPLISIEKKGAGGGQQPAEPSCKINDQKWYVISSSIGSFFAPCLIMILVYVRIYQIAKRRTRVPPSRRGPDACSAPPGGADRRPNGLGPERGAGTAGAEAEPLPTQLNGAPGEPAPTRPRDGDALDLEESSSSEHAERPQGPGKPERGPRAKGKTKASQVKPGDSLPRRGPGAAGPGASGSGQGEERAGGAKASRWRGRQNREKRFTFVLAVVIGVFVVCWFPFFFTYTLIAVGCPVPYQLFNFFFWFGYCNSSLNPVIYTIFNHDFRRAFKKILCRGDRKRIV
# Protocol: The relative bioavailability of the antagonists when administered orally was evaluated by comparing the potency of their α2 -blocking effect after peroral and parenteral administration. The antagonists were administered at equipotent doses (0.3 to 3 mg/kg) to groups of rats 1 hour before induction of anaesthesia and challenge with detomidine as described above in relation to the measurement of duration of action.
# α1-adrenoceptor [3] = target: T3, α1-adrenoceptor (Rattus norvegicus, UniProt P43140); details: for α1-Agonism (pD2) rat vas deferens / EC50: negative logarithm of molar concentration producing 50 percent of maximal contraction; for EC50: read-out: α1-Agonism (pD2) rat vas deferens (converted)
# T3 sequence (P43140 1-466): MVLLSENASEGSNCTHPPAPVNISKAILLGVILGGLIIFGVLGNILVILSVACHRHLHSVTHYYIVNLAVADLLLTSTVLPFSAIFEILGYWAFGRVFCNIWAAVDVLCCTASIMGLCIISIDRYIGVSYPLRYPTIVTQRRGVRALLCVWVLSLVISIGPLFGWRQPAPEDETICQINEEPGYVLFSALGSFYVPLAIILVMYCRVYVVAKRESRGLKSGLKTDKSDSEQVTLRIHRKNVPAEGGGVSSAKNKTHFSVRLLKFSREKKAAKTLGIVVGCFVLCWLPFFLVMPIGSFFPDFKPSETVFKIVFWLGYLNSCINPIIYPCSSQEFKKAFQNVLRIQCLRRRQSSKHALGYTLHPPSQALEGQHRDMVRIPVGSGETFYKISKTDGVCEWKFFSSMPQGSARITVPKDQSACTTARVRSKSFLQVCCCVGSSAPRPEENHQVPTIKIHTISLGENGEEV
# Protocol: (§1) To obtain information also on the selectivity of the antagonist between α1 - and α2 -receptors, its ability to inhibit or stimulate α1 -receptors was determined by means of isolated epididymal portion of rat vas deferens. The reference substances were now phenylephrine, a known α1 -agonist, and prazosin, a known α1 -antagonist. To determine α1 -antagonism, muscular contraction was induced by phenylephrine and the pA2 value of the studied compound was determined as above α1 -Agonist effect is presented as the pD2 value (negative logarithm of the molar concentration of the compound producing 50 percent of maximal contraction).
# α2-adrenoceptor [4] = experiment: Duration of the α2-blocking action (antagonism of detomidine mydriasis after oral pretreatment); assay type: in vivo; details: rat, equipotent doses, pretreatment 1, 2, 4, 7 or 16 hours, time for antagonist effect to fall by half
# Protocol: The duration of the α2 -blocking action of the compounds was determined as follows: the antagonists were administered orally at equipotent doses to groups of 4 rats 1, 2, 4, 7 or 16 hours before induction of anaesthesia and challenge with cumulative i.v. dosing of detomidine. By calculating the percentage antagonism of the mydriatic effect of 0.1 mg/kg detomidine for each pretreatment group, a time-effect relationship was established. This in turn permitted the measurement of the time taken for the antagonist effect to fall by half.
# α1-adrenoceptor [5] = experiment: α1-Antagonism in vitro, isolated epididymal portion of rat vas deferens (vs phenylephrine); details: contraction induced by phenylephrine
# Protocol: as §1
# α2-adrenoceptor [6] = experiment: α2-Adrenoceptor antagonism in vivo, reversal of detomidine-induced mydriasis in anaesthetized rat; details: dose producing 50 per cent reversal of detomidine-induced mydriasis
# Protocol: 2. α2 -Adrenoceptor antagonism in vivo
# It is known that in the rat α2 -agonists induce dilatation of the pupil (mydriasis) which effect is transmitted via postsynaptic α2 -receptors in the central nervous system. In anaesthetized rat, a standard dose of an α2 -agonist, detomidine, was administered intravenously. Thereafter increasing doses of the studied antagonists were injected intravenously and the reversal of detomidine-induced mydriasis was followed. The ED50 value of the antagonist, i.e. the dose producing a 50 per cent reversal, was determined.
# rats = experiment: Effects on learning and memory in linear arm maze task; assay type: in vivo, rat; details: for learning and memory effect (overall): adult rats; for time to solve the task / number of errors (reentries into arms already visited): rats; for time to solve the task: effect on learning and speed to make correct choices; for number of errors (reentries into arms already visited): effect on working memory
# Protocol: The linear arm maze is a modified version of radial arm maze, which is a generally used memory test in rats. […] Water was also used as control. All injections were made in a volume 1 ml/kg.
# Apparatus: The maze was a wooden platform in a shape of two crosses one after another. The stem (starting arm) was 90 cm long and 12 cm wide. The five other arms (goal arms) were 50 cm long and 12 cm wide. Four goal arms were situated perpendicularly to the stem and to the fifth arm which located opposite to the stem. On either side of the stem and the arms were edges, 2.0 cm high. At the end of each goal arm a hole 1 cm deep and 3 cm in diameter, served as a food cup. The starting platform (20×20 cm) was separated from the stem by a quillotine door. The door was 12 cm high and 7 cm wide. The door frame was 20 cm high and 20 cm wide. The maze was elevated 31 cm above the floor, in a low-lighted test room which contained other objects as well as the test apparatus. The holes at the end of the goal arms were baited with three pellets of prize food (45 mg pellets Bio Serve Inc.).
# Procedures: Two days prior to training, animals were placed on a food deprivation schedule that reduces their body weights to 90% of initial weights. During these days the rats were habituated to handling (three times/day), test room and prize food. On the second day they were also habituated to the unbaited maze: three to five animals from the same cage at the same time for ten minutes. On the third day the goal arms were baited, and the teaching trial, one rat at a time, was carried out. The rat received drug or distilled water and […] later it was placed in the starting platform. After ten seconds the door was opened and the rat was allowed to explore the maze until all the baits were found. The time to find all the baits and reentries made into already visited arms was recorded. This time every rate was allowed to stay in the maze at least for five minutes. On the next day the proper memory and learning testing began and continued for four days (testing days 1 to 4). Rats were given eight trials, two per day. Inter trial interval was 50 minutes. Drugs or distilled water were administered 30 minutes before the first trial of the day. Otherwise testing trials were identical to the teaching trial. All the observations were done blind so that test solutions were in coded flasks.
# Statistical analysis: The results were expressed as mean time/trial/day (seconds) and mean errors/trial/day. The analysis of variance for the repeated measurements (ANOVA) was used to compare the drugs' and the testing days' effects on learning and memory.
# [7] = Acute toxicity (LD50) using mice; details: mouse, in vivo, po
# Protocol: For example, the LD50 for 7-(4-(5-fluoro-2,3-dihydro-1H-inden-2-yl)-1H-imidazole) is 100 mg/kg (p.o.).
# [8] = antagonist given prior to detomidine, mouse vas deferens, read-out: α2-Antagonism (pA2 vs detomidine) mouse vas deferens (converted)
SMILES,Kb (α2-adrenoceptor [1]; [8]) [nM],Peroral bioavailability (α2-adrenoceptor [2]),α1-Agonism (pD2) rat vas deferens (α1-adrenoceptor [3]),t1/2 of α2-antagonism (α2-adrenoceptor [4]) [h],α1-Antagonism (pA2 vs phenylephrine) rat vas deferens (α1-adrenoceptor [5]),α2-Antagonism ED50 (iv) (α2-adrenoceptor [6]) [mg/kg],Kb (α2-adrenoceptor [1]) [nM],further results
"CCC1(c2c[nH]cn2)Cc2cc(F)c(F)cc2C1 [Compound 3, 4-(2-Ethyl-5,6-difluoro-2,3-dihydro-1H-inden-2-yl)-1H-imidazole]",63.1,,,,,,,
"Fc1cccc2c1CC(c1c[nH]cn1)C2 (stereo not drawn) [Compound 6, 4-(4-Fluoro-2,3-dihydro-1H-inden-2-yl)-1H-imidazole]",,,,,,,7.94,"EC50 (α1-adrenoceptor [3]): 316 nM; α1-Agonism, type of agonist (full/partial) (α1-adrenoceptor [3]; rat vas deferens): full agonist"
"Fc1ccc2c(c1)CC(c1c[nH]cn1)C2 (stereo not drawn) [Compound 7, 4-(5-Fluoro-2,3-dihydro-1H-inden-2-yl)-1H-imidazole]",,80,,7,,0.01,10,EC50 (α1-adrenoceptor [3]): 3160 nM; learning and memory effect (overall) (rats; 0.3 mg/kg s.c. (hydrochloride)): learning and memory enhancing effects; time to solve the task (rats; 0.3 mg/kg s.c. (hydrochloride)): decreased the time to solve the task; number of errors (reentries into arms already visited) (rats; 0.3 mg/kg s.c. (hydrochloride)): decreased number of errors; LD50 [7]: 100 mg/kg
"CCC1(c2cnc[nH]2)Cc2ccccc2C1 [atipamezole, reference compound]",,,no effect,2,5.0,0.01,7.94,learning and memory effect (overall) (rats; 0.3 mg/kg s.c. (hydrochloride)): learning and memory enhancing effects; time to solve the task (rats; 0.3 mg/kg s.c. (hydrochloride)): decreased the time to solve the task; number of errors (reentries into arms already visited) (rats; 0.3 mg/kg s.c. (hydrochloride)): decreased number of errors

# Further lines, with some results ahead:
Kb (α2-adrenoceptor [1]; [8]) [nM],Peroral bioavailability (α2-adrenoceptor [2]),α1-Agonism (pD2) rat vas deferens (α1-adrenoceptor [3]),SMILES,t1/2 of α2-antagonism (α2-adrenoceptor [4]) [h],α1-Antagonism (pA2 vs phenylephrine) rat vas deferens (α1-adrenoceptor [5]),α2-Antagonism ED50 (iv) (α2-adrenoceptor [6]) [mg/kg],Kb (α2-adrenoceptor [1]) [nM],further results
6.31,81,no effect,"CCC1(c2c[nH]cn2)Cc2ccc(F)cc2C1 (stereo not drawn) [Compound 1, 4-(2-Ethyl-5-fluoro-2,3-dihydro-1H-inden-2-yl)-1H-imidazole]",3,no effect,0.015,,
50.1,,,"CC1(c2c[nH]cn2)Cc2ccc(F)cc2C1 (stereo not drawn) [Compound 2, 4-(5-Fluoro-2,3-dihydro-2-methyl-1H-inden-2-yl)-1H-imidazole]",,,,,
1260,89,no effect,"CCC1(c2c[nH]cn2)Cc2ccc(F)cc2C1=O (stereo not drawn) [Compound 4, 2-Ethyl-6-fluoro-2,3-dihydro-2-(1H-imidazol-4-yl)-1H-inden-1-one]",6,no effect,0.3,,learning and memory effect (overall) (rats; 3 mg/kg p.o. (hydrochloride)): learning and memory enhancing effects; time to solve the task (rats; 3 mg/kg p.o. (hydrochloride)): decreased the time to solve the task; number of errors (reentries into arms already visited) (rats; 3 mg/kg p.o. (hydrochloride)): decreased number of errors
251,,,"CCC1(c2c[nH]cn2)Cc2ccc(Cl)cc2C1=O (stereo not drawn) [Compound 5, 6-Chloro-2-ethyl-2,3-dihydro-2-(1H-imidazol-4-yl)-1H-inden-1-one]",,,,,
63.1,,,"CCC1(c2c[nH]cn2)Cc2ccc(O)cc2C1 (stereo not drawn) [Compound 8, 2-Ethyl-2-(1H-imidazol-4-yl)-5-indanol]",,,,,
